Laboratory results: ChEMBL document CHEMBL5214948, “Boronic Acid: A Novel Pharmacophore Targeting Src Homology 2 (SH2) Domain of STAT3” (J Med Chem, 2022)
Activity calls are given as the source filed them. No cut-off for these calls is given here.

Tests used:
[1] = tested on: MGC-803; test: Inhibition of colony formation in human MGC-803 cells at 1 uM incubated for 10 to 15 days by crystal violet staining based assay; type: functional, cell-based; conditions: time 10-15 day
[2] = tested on: AGS; test: Antiproliferative activity against human AGS cells assessed as reduction in cell viability incubated for 72 hrs by CCK-8 assay; type: functional, cell-based
[3] = tested on: MGC-803; test: Antiproliferative activity against human MGC-803 cells assessed as reduction in cell viability measured after 72 hrs by CCK-8 assay; type: functional, cell-based; conditions: MGC-803, 72 h
[4] = Half life in ICR mouse at 5 mg/kg, iv measured upto 24 hrs by LC-MS/MS analysis; type: ADME, organism-based; conditions: in vivo
[5] = Cmax in ICR mouse at 5 mg/kg, iv measured upto 24 hrs by LC-MS/MS analysis; type: ADME, organism-based; set-up: time < 24 hrs, dose 5 mg/kg, route iv; conditions: in vivo
[6] = in vivo; type: ADME, organism-based; conditions: ICR, mouse, iv, 5 mg/kg
[7] = in vivo; type: ADME, organism-based; conditions: ICR, mouse, iv, 5 mg/kg; remark: listed apart in the source
[8] = Clearance in ICR mouse at 5 mg/kg, iv measured upto 24 hrs by LC-MS/MS analysis; type: ADME, organism-based; conditions: in vivo
[9] = Volume of distribution at steady state in ICR mouse at 5 mg/kg, iv measured upto 24 hrs by LC-MS/MS analysis; type: ADME, organism-based; conditions: in vivo, read-out: Vdss
[10] = target: T1, Signal transducer and activator of transcription 3 (Homo sapiens, UniProt P40763); test: Binding affinity to full length wild type STAT3-SH2 domain (unknown origin) assessed as association constant by SPR analysis
T1 sequence (P40763 whole entry, the tested form may be a part): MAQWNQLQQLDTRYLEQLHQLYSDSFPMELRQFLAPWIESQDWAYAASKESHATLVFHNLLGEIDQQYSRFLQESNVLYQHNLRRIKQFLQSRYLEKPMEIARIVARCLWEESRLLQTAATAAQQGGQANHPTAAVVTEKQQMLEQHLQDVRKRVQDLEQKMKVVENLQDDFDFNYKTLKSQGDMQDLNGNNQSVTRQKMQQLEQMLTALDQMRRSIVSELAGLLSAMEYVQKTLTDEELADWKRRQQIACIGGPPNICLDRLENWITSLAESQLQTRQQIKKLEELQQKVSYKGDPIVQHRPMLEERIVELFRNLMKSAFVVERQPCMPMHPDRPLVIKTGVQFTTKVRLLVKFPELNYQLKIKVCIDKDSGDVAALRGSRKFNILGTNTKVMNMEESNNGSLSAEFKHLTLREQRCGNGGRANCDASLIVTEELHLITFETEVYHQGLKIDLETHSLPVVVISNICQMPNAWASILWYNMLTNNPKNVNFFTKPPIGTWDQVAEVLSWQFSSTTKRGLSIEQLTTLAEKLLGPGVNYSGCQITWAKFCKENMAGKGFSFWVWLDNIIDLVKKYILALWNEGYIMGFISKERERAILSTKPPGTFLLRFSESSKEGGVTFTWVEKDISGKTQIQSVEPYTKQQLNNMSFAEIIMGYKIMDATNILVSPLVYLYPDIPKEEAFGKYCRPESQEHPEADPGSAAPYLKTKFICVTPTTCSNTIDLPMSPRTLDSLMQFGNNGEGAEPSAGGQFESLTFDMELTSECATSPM

[11] = target: T1, Signal transducer and activator of transcription 3; test: Binding affinity to full length wild type STAT3-SH2 domain (unknown origin) assessed as equilibrium dissociation constant by SPR analysis
[12] = target: T1, Signal transducer and activator of transcription 3; test: Binding affinity to full length wild type STAT3-SH2 domain (unknown origin) in human MGC-803 cells assessed as thermal stabilization of protein at 37 to 53 degreeC at 5 uM incubated for 3 hrs by cellular thermal shift assay; type: cell-based
[13] = target: T1, Signal transducer and activator of transcription 3; test: Inhibition of STAT3 phosphorylation at Tyr705 residue in human AGS cells incubated for 24 hrs by Western blot analysis; type: cell-based; conditions: dose 1-3 µM, DDE = dose-dependent effect
[14] = target: T1, Signal transducer and activator of transcription 3; test: Inhibition of STAT3 phosphorylation at Tyr705 residue in human MGC-803 cells incubated for 24 hrs by Western blot analysis; type: cell-based; conditions: dose 3-5 µM, DDE = dose-dependent effect
[15] = target: T1, Signal transducer and activator of transcription 3; test: Inhibition of IL-6 induced FLAG/HA-tagged STAT3 dimerization in human HEK293T cells pretreated for 24 hrs followed by IL-6 stimulation and measured after 1 hr by immunoprecipitation assay; type: cell-based; conditions: time 25.0 hrs, DDE = dose-dependent effect
[16] = target: T1, Signal transducer and activator of transcription 3; test: Inhibition of STAT3 transcriptional activity transfected in HEK293T cells at 3 to 5 uM incubated for 24 hrs by dual-ludferase reporter gene assay; type: cell-based; conditions: dose 3-5 µM
[17] = target: T1, Signal transducer and activator of transcription 3; test: Inhibition of STAT3 transcriptional activity in human AGS cells assessed as downregulation of C-myc protein expression at 1 to 3 uM incubated for 24 hrs by Western blot analysis; type: cell-based; conditions: dose 1-3 µM
[18] = target: T1, Signal transducer and activator of transcription 3; test: Inhibition of STAT3 transcriptional activity in human MGC-803 cells assessed as downregulation of C-myc protein expression at 3 to 5 uM incubated for 24 hrs by Western blot analysis; type: cell-based; conditions: dose 3-5 µM
[19] = target: T1, Signal transducer and activator of transcription 3; test: Inhibition of STAT3 transcriptional activity in human AGS cells assessed as downregulation of Bcl-xL protein expression at 1 to 3 uM incubated for 24 hrs by Western blot analysis; type: cell-based; conditions: dose 1-3 µM
[20] = target: T1, Signal transducer and activator of transcription 3; test: Inhibition of STAT3 transcriptional activity in human MGC-803 cells assessed as downregulation of Bcl-xL protein expression at 3 to 5 uM incubated for 24 hrs by Western blot analysis; type: cell-based; conditions: dose 3-5 µM
[21] = Antiproliferative activity against […] H9c2 cells assessed as reduction in cell viability incubated for 72 hrs by CCK-8 assay; type: toxicity, cell-based; conditions: rat
[22] = tested on: AGS; test: Antiproliferative activity against human AGS cells assessed as reduction in cell viability at 1 to 3 uM incubated for 72 hrs by Edu incorporation assay; type: functional, cell-based; conditions: dose 1-3 µM
[23] = tested on: MGC-803; test: Antiproliferative activity against human MGC-803 cells assessed as reduction in cell viability at 3 to 5 uM incubated for 72 hrs by Edu incorporation assay; type: functional, cell-based; conditions: dose 3-5 µM
[24] = tested on: AGS; test: Inhibition of colony formation in human AGS cells at 0.5 uM incubated for 10 to 15 days by crystal violet staining based assay; type: functional, cell-based; conditions: time 10-15 day
[25] = tested on: AGS; test: Induction of apoptosis in human AGS cells at 1 uM incubated for 72 hrs by V-FITC/PI staining based flow cytometry assay; type: functional
[26] = tested on: AGS; test: Induction of apoptosis in human AGS cells at 3 uM incubated for 72 hrs by V-FITC/PI staining based flow cytometry assay; type: functional
[27] = tested on: MGC-803; test: Induction of apoptosis in human MGC-803 cells at 5 uM incubated for 72 hrs by V-FITC/PI staining based flow cytometry assay; type: functional

CN(CC(=O)N(Cc1ccc(C2CCCCC2)cc1)c1ccc(B(O)O)cc1)S(=O)(=O)c1c(F)c(F)c(F)c(F)c1F
inhibition [1]: Active
IC50 [2]: 1.54 µM
IC50 [3]: 4.73 µM
half-life [4]: 1.25 h
Cmax [5]: 1500 ng/mL
AUC(0-t) at 24 h [6]: 485 ng·h/mL
AUC(0-inf) at 24 h [7]: 490 ng·h/mL
clearance [8]: 176 mL/min/kg
Vd [9]: 18.7 L/kg
Ka [10]: 1.25 10^3/M/s
Kd [11]: 5.02 µM
Activity [12]: Active
inhibition [13]: Dde
inhibition [14]: Dde
inhibition [15]: Dde
inhibition [16]: Active
inhibition [17]: Active
inhibition [18]: Active
inhibition [19]: Active
inhibition [20]: Active
IC50 at 72 h [21]: 9.05 µM
Activity [22]: Active
Activity [23]: Active
inhibition [24]: Active
Activity [25]: 13%
Activity [26]: 26.7%
Activity [27]: 11.2%
